Marks after values point to notes of the source that are not given here.
How the values were obtained:
[1] = target: HCV NS3/4A protease (Hepatitis C virus genotype 1a, UniProt P27958); test: Inhibition against HCV protease; format: biochemical; settings: for IC50: HCV NS3/4A protease 0.5 μg/ml, 30 min, room temperature; for HCV protease inhibitory activity relative to embelin: fold stronger than embelin
Procedure: An aliquot (2 μl) of test compounds dissolved in DMSO was added to each well of a 384-well black Assay plate, followed by addition of 8 μl of HCV NS3/4A protease solution (0.5 μg/ml). The reaction was initiated by adding 10 μl of freshly diluted substrate (100× dilution of a DMSO stocking solution). The mixture was incubated at room temperature for 30 min, and the fluorescence intensity was measured at 485 nm for excitation and 535 nm for emission by a TECAN GENios plate reader. […] All fluorescence values were corrected with a substrate blank. Samples were assayed at different concentrations to plot a concentration VS. inhibition percentage curve, and IC50 values were obtained from the curve for each sample. A known HCV protease inhibitor, embelin, was used as a reference. Discussion

[2] = Metal chelation capacity (ferrozine); settings: test compounds 1 mM ethanolic solution, FeCl2, ferrozine
Procedure: An ORAC (Oxygen Radical Absorbance Capacity) assay was carried out using a Fluostar Optima plate reader (BMG Labtech, Durham, N.C.) equipped with an incubator and two injector pumps. A modified method for lipophilic antioxidants was followed, in which randomly methylated cyclodextrin (RMCD) was used as water solubility enhancer, as described by Huang et al, J. Agric. Food Chem., 2002, 50, 1815-1821. Trolox standards (6.25-50 μM) and samples (0.25 μM) were dissolved in acetone/water (1:1, v/v) containing 7% RMCD. Fluorescein and […] [2,2′-azobis(2-aminopropane)dihydrochloride] were used as the probe and radical generator, respectively. Twenty microliters of trolox standard or test compound solutions (7% RMCD used as a control) were added into each well of a 96-well black microplate, followed by addition of fluorescein. The plate was incubated at 37° C. for 15 min and then AAPH in buffer was injected into the wells. The conditions used were as follows: 0.3 s position delay, 8 s orbital shaking before each cycle with 4 mm width, 210 s cycle time, and 25 cycles. Fluorescence was measured at an excitation wavelength of 485 nm and emission of 520 nm. A standard curve was plotted and ORAC values for test compounds were obtained as mol of trolox equivalents (TE) per mol of test compound. (3b) Reducing Power The reducing power of EGCG and its derivatives (compounds 1a-1c) was determined according to Oyaizu (1986). One milliliter of test compounds (1 mM in 95% ethanol) was mixed with 2.5 ml of phosphate buffer solution (PBS, 0.2 M, pH 6.6) and 2.5 ml of a 1% solution of potassium ferricyanide, K3Fe(CN)6. The mixture was incubated at 50° C. for 20 min. […] The content was mixed well and the absorbance was recorded at 700 nm. Higher absorbance of the reaction mixture indicates greater reducing power. […] (3c) Metal Chelation The metal chelation capacity was measured following a procedure by Decker E. A. et al., J. Agric. […] The absorbance was measured afterwards at 562 nm. A blank without ferrozine was run for each compound, since the antioxidant-Fe^2+ complex gives a colour that might interfere with the absorbance reading. Metal chelation capacity was calculated using the following equation: % chelation=[1−(Abs.sample−Abs.blank)/Abs.control]×100 where, control was devoid of test compounds, while blank contained no ferrozine. (3d) DPPH Antioxidant activity of the lipophilic EGCG derivatives was ALSO evaluated as DPPH (1,1-diphenyl-2-picrylhydrazyl) radical scavenging capacity using EGCG as the reference. DPPH scavenging capacity of test compounds was determined by EPR (electron paramagnetic resonance) according to Madhujith and Shahidi (16) with slight modifications. […] The spectrum was recorded after 1 min. […]

[3] = Oil/water emulsion (β-carotene/linoleate) bleaching; settings: test compounds 1 mM in ethanol, 50° C., 105 min
Procedure: Ten milligrams of β-carotene were dissolved in 10 ml of chloroform. A 1.2 ml portion of this solution was transferred into a round-bottom flask containing 40 mg of linoleic acid and 400 mg of Tween 40. A blank without β-carotene was also prepared (40 mg of linoleic acid+400 mg of Tween 40). After removal of chloroform under a nitrogen stream, 100 ml of oxygenated distilled water were added to the flask and the mixture was stirred vigorously. Aliquots (4.5 ml) of the above emulsion were transferred into a series of tubes containing 0.5 ml of test compounds (1 mM in ethanol) or ethanol as control. A mixture of blank (without β-carotene) was prepared for each sample. The tubes were vortexed and the zero time absorbance was read immediately at 470 nm. The tubes are kept in a water bath at 50° C. with gentle shaking, and measurement of absorbance was continued over a 105-min period at intervals of 15 min. Blank-corrected absorbance was obtained and plotted against time for kinetic curve of β-carotene bleaching. Antioxidant activity (AA) of test compounds in protecting β-carotene/linoleic acid oxidation was calculated using the following equation. AA %=[1−(A0−At)/(A0^o−At^o)]×100 where, A0 and At are corrected absorbance values for test samples measured at zero time and after incubation, respectively; while A0^o and At^o are corrected absorbance values for control at zero time and after incubation, respectively.

HCV NS3/4A protease, sequence (P27958 1027-1657): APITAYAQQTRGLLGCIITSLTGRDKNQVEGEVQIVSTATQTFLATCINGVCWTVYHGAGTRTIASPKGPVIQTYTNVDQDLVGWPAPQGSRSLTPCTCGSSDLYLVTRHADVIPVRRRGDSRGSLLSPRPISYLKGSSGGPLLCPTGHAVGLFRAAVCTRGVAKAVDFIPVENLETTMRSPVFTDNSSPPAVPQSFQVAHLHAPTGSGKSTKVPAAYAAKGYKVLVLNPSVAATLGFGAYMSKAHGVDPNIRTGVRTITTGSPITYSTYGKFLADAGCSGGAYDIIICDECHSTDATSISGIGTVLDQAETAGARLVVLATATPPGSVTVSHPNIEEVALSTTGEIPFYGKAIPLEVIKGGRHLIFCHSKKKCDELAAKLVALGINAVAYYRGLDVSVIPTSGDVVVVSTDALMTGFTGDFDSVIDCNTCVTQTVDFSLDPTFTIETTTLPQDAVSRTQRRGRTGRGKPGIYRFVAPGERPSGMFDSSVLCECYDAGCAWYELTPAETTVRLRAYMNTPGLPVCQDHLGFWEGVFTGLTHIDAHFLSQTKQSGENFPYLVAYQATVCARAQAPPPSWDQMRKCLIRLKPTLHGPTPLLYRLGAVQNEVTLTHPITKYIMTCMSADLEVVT
HCV NS3/4A protease, sequence (P27958 1658-1711): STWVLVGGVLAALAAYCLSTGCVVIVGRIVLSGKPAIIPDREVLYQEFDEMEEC

Compound	IC50 [1] [nM]	HCV protease inhibitory activity relative to embelin [1]	Metal chelation [2] [%]	Inhibition of β-carotene bleaching [3]
CCC=CCC=CCC=CCC=CCC=CCCCC(=O)Oc1cc(C(=O)OC2Cc3c(O)cc(O)cc3OC2c2cc(OC(=O)CCCC=CCC=CCC=CCC=CCC=CCC)c(O)c(OC(=O)CCCC=CCC=CCC=CCC=CCC=CCC)c2)cc(OC(=O)CCCC=CCC=CCC=CCC=CCC=CCC)c1O (stereo not drawn) [Compound 1b]	6	1700 fold	35.42	28.0 ± 0.17^a %
O=C(O[C@@H]1Cc2c(O)cc(O)cc2O[C@@H]1c1cc(O)c(O)c(O)c1)c1cc(O)c(O)c(O)c1 [EGCG, Epigallocatechin gallate, reference compound]	> 200000		10.42	7.90 ± 0.64^c %
CCC=CCC=CCC=CCC=CCC=CCC=CCCC(=O)Oc1cc(C(=O)OC2Cc3c(O)cc(O)cc3OC2c2cc(OC(=O)CCC=CCC=CCC=CCC=CCC=CCC=CCC)c(O)c(OC(=O)CCC=CCC=CCC=CCC=CCC=CCC=CCC)c2)cc(OC(=O)CCC=CCC=CCC=CCC=CCC=CCC=CCC)c1O (stereo not drawn) [Compound 1c]	6	1700 fold	28.13	32.1 ± 4.48^a %
CCCCCCCCCCCCCCCCCC(=O)Oc1cc(C(=O)OC2Cc3c(O)cc(O)cc3OC2c2cc(OC(=O)CCCCCCCCCCCCCCCCC)c(O)c(OC(=O)CCCCCCCCCCCCCCCCC)c2)cc(OC(=O)CCCCCCCCCCCCCCCCC)c1O (stereo not drawn) [Compound 1a, EGCG stearate]	130	approximately 80 fold	8.33	16.8 ± 4.19^b %
